Results from patent US20070207138A1, “S/O Type Pharmaceutical Preparation and Method for Producing the Same” (ASPION CO., LTD., priority 2004, published 2007).
Where “and” joins values, the source holds several entries; their conditions need not be identical. Identical values can stand only once. Entries after “also recorded” stand apart in the source; their conditions may differ.

Key:
[1] = Blood concentration test; format: in vivo; conditions: beagle dog fasted overnight, oral, DFNa 6 mg/kg body weight
[2] = Plasma DFNa concentration in the gastric mucosa stimulus test; format: in vivo, male Wistar rats; conditions: DFNa 50 mg/kg body weight by intrastomach catheter, blood after 3.5 hours
Method: (§1) Gastric mucosa stimulus test for the S/O type complex suspension obtained in Production example 1 was carried out. Specifically, according to the method disclosed by Tsurumi et al. (Folia Pharmacol. Japan, 69, pp.319-334 (1973)), five male Wistar rats having an average body weight of 140 g were fasted for 18 hours in advance, and were administered so that the dose amount of DFNa was 50 mg/kg body weight by means of an intrastomach catheter for rat. After 3.5 hours, the rats were sacrificed and dissected, and the condition of the gastric mucosa was observed. Also blood collected after 3.5 hours was centrifuged to obtain a plasma sample, and DFNa concentration in the plasma was determined by HPLC.

[3] = system: gastric mucosa; assay: Gastric mucosa stimulus test
Method: as §1

## O=C(O)Cc1ccccc1Nc1c(Cl)cccc1Cl [DFNa solution, diclofenac sodium]
[1]
  Area under medicine concentration curve: 62800 ng·h/mL
  Maximum blood concentration: 26.4 µg/mL
  Maximum blood concentration reach time: 1 h
[1]; serum
  half-life: 58.8 min
[2]; group average, rat
  Plasma DFNa concentration, Average: 6.21 ± 2.03
[2]; individual rat
  Plasma DFNa concentration: 3.99 and 7.98 and 6.64
[3]; individual rat, DFNa 50 mg/kg body weight by intrastomach catheter, observed after 3.5 hours
  Condition of gastric mucosa: Dotted bleeding; also recorded: Gastric ulcer
[3]; rat, DFNa 50 mg/kg body weight
  abnormality in gastric mucosa: clear abnormality is observed
